The record followed here is patent US9409908B2 (priority 2012, dated 2016).

A word on the Ki: it is the dissociation constant of the complex between target and ligand, obtained from inhibition or displacement.

Counter-ions that a name gives are not always drawn. A value given as a limit tells only on which side of the number the result lay.

In assay [1] the target is purified human plasma kallikrein (Homo sapiens (Human), UniProt P03952). Nature of the assay: biochemical. The note with it: read-out: Plasma Kallikrein Ki. In kind it is biochemical.
Assay [2] concerns the target purified human Factor XIa (Homo sapiens (Human), UniProt P03951). Nature of the assay: biochemical. Format: biochemical. To be noted: read-out: Factor XIa Ki.

Chain of purified human plasma kallikrein (P03952 whole entry, looked up): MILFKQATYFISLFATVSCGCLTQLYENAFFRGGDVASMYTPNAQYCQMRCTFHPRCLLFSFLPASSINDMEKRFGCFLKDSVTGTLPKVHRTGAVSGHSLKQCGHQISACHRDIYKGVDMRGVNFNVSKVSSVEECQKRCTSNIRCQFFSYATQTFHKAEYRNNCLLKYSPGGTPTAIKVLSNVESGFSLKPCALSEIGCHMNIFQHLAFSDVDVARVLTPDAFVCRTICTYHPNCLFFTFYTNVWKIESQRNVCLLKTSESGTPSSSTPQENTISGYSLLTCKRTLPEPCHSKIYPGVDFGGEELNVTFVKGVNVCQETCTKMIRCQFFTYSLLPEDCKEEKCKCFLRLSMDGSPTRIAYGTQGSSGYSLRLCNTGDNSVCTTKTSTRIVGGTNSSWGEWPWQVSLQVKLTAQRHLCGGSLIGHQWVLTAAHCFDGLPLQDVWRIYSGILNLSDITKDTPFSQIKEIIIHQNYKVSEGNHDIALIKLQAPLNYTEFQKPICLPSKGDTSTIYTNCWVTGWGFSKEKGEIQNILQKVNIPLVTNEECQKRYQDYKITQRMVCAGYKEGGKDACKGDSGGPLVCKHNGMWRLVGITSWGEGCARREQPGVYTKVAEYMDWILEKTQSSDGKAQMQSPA
Chain of purified human plasma kallikrein (P03952 whole entry partner, looked up): as the sequence (P03952 whole entry, looked up) above
Chain of purified human Factor XIa (P03951 whole entry, looked up): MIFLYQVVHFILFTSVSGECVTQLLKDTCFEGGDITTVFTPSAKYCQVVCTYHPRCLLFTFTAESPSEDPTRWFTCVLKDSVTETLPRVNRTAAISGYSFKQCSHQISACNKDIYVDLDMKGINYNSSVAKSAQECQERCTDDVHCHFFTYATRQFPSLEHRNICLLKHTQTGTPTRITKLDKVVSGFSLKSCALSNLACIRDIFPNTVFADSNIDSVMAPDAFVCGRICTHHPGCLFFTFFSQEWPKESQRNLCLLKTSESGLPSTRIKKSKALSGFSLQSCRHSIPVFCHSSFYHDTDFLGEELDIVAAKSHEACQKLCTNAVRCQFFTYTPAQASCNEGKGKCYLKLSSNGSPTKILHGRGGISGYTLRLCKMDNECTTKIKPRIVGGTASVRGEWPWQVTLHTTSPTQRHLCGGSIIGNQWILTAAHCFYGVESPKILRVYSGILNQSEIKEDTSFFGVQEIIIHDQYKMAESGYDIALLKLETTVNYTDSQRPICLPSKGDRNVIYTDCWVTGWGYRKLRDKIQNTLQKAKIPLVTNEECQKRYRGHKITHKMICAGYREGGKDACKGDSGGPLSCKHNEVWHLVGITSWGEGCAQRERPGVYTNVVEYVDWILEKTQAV
Chain of purified human Factor XIa (P03951 whole entry partner, looked up): as the sequence (P03951 whole entry, looked up) above

As to `COC(=O)Nc1ccc2c(c1)NC(=O)[C@H](C)CCC[C@H](N1CCC(C3CCNCC3)=CC1=O)c1cc-2ccn1` [Example 155, Methyl N-[(10R,14S)-10-methyl-9-oxo-14-[6-oxo-4-(piperidin-4-yl)-1,2,3,6-tetrahydropyridin-1-yl]-8,16-diazatricyclo[13.3.1.0^2,7]nonadeca-1(19),2,4,6,15,17-hexaen-5-yl]carbamate, 2 TFA salt], the Ki in assay [1] was 199 nM; in assay [2], 4.88 nM.

Take `C[C@@H]1CCC[C@H](N2CCC(c3c(F)ccc(Cl)c3F)=CC2=O)c2cc(ccn2)-c2c(ccc(F)c2F)NC1=O` [Example 203, (10R,14S)-14-[4-(3-chloro-2,6-difluorophenyl)-6-oxo-1,2,3,6-tetrahydropyridin-1-yl]-3,4-difluoro-10-methyl-8,16-diazatricyclo[13.3.1.0^2,7]nonadeca-1(19),2(7),3,5,15,17-hexaen-9-one, TFA salt]: the Ki turned out to be 44 nM in assay [1] and 19.4 nM in assay [2].

`COC(=O)c1ccc2c(c1)-c1cccc(c1)[C@@H](N1CCC(c3c(C#N)ccc(C#N)c3F)=CC1=O)CCC[C@@H](C)C(=O)N2` [Example 168, Methyl (10R,14S)-14-[4-(3,6-dicyano-2-fluorophenyl)-6-oxo-1,2,3,6-tetrahydropyridin-1-yl]-10-methyl-9-oxo-8-azatricyclo[13.3.1.0^2,7]nonadeca-1(18),2,4,6,15(19),16-hexaene-4-carboxylate]: the Ki is 1920 nM in assay [1] and more than 417 nM in assay [2].

Turning to `C[C@@H]1CCC[C@H](N2CCC(c3c(F)ccc(Cl)c3F)=CC2=O)c2cc(ccn2)-c2ccc(Nc3cccnn3)cc2NC1=O` [Example 196, (10R,14S)-14-[4-(3-chloro-2,6-difluorophenyl)-6-oxo-1,2,3,6-tetrahydropyridin-1-yl]-10-methyl-5-[(pyridazin-3-yl)amino]-8,16-diazatricyclo[13.3.1.0^2,7]nonadeca-1(19),2(7),3,5,15,17-hexaen-9-one, 2 TFA salt], the Ki came out at 1.52 nM in assay [1] and 0.8 nM in assay [2].

Take `C[C@@H]1CCC[C@H](N2CCC(c3c(F)ccc(Cl)c3F)=CC2=O)c2cc(ccn2)-c2ccc(NC3O[C@@H](CO)[C@H](O)[C@@H](O)[C@@H]3O)cc2NC1=O` (stereo partly shown) [Example 131]: the values for the Ki in assay [1] and in assay [2] were 20.8 nM and 7.22 nM, respectively.

Consider `COC(=O)Nc1ccc2c(c1)NC(=O)[C@H](C)CCC[C@H](N1CCC(c3nccc(Cl)c3F)=CC1=O)c1cc-2ccn1` [Example 10, Methyl N-[(10R,14S)-14-[4-(4-chloro-3-fluoropyridin-2-yl)-6-oxo-1,2,3,6-tetrahydropyridin-1-yl]-10-methyl-9-oxo-8,16-diazatricyclo[13.3.1.0^2,7]nonadeca-1(18),2,4,6,15(19),16-hexaen-5-yl]carbamate, TFA salt], for which the Ki in assay [1] turned out to be 1 nM; in assay [2], 0.92 nM.

With `C[C@@H]1CCC[C@H](N2CCC(c3c(F)ccc(Cl)c3F)=CC2=O)c2cc(ccn2)-c2ccc(Nc3nnc(C4CC4)o3)cc2NC1=O` [Example 39, (10R,14S)-14-[4-(3-Chloro-2,6-difluorophenyl)-6-oxo-1,2,3,6-tetrahydropyridin-1-yl]-5-[(5-cyclopropyl-1,3,4-oxadiazol-2-yl)amino]-10-methyl-8,16-diazatricyclo[13.3.1.0^2,7]nonadeca-1(19),2(7),3,5,15,17-hexaen-9-one, TFA salt], the results for the Ki in assay [1] and in assay [2] were 2 nM and 0.67 nM, respectively.

For the compound `C[C@@H]1CCC[C@H](n2ccc(-c3cccc(Cl)c3F)cc2=O)c2cc(ccn2)-c2ccccc2NC1=O` [Example 65, (10R,14S)-14-[4-(3-Chloro-2-fluorophenyl)-2-oxo-1,2-dihydropyridin-1-yl]-10-methyl-8,16-diazatricyclo[13.3.1.0^2,7]nonadeca-1(19),2,4,6,15,17-hexaen-9-one, TFA salt], the Ki was found to be 53 nM in assay [1] and 47.6 nM in assay [2].
